Test results as given in the NIST ThermoML archive (doi:10.1021/acs.jced.8b01095).

Assay: xn = mol fraction of the nth substance listed
Settings: Liquid; for viscosity: 2 kPa, Falling or rolling sphere viscometry; for speed of sound / mass density: 100 kPa; for speed of sound: Single path-length method; for mass density: Vibrating tube method

CNc1ccccc1 [N-methylaniline] + CCCC[n+]1ccn(C)c1.O=S(=O)([N-]S(=O)(=O)C(F)(F)F)C(F)(F)F
Settings | mass density [kg/m3] | speed of sound [m/s] | viscosity [mPa·s]
298.15 K, x2 = 0 | 982.7 | 1564.5 | 1.94
298.15 K, x2 = 0.0958 | 1085.92 | 1478.4 | 3.78
298.15 K, x2 = 0.2004 | 1171.17 | 1416.5 | 7.41
298.15 K, x2 = 0.3061 | 1237.44 | 1372.1 | 10.89
298.15 K, x2 = 0.4074 | 1287.31 | 1337.5 | 15.38
298.15 K, x2 = 0.4939 | 1321.9 | 1312.1 | 19.38
298.15 K, x2 = 0.5905 | 1352.65 | 1286.8 | 23.54
298.15 K, x2 = 0.6834 | 1377.01 | 1267.9 | 28.71
298.15 K, x2 = 0.7988 | 1402.4 | 1250.4 | 35.25
298.15 K, x2 = 0.8751 | 1415.81 | 1241 | 40.87
303.15 K, x2 = 0 | 978.59 | 1546.1 | 1.73
303.15 K, x2 = 0.0958 | 1081.63 | 1462.9 | 3.32
303.15 K, x2 = 0.2004 | 1166.89 | 1402.2 | 6.34
303.15 K, x2 = 0.3061 | 1233.05 | 1358.7 | 9.2
303.15 K, x2 = 0.4074 | 1282.85 | 1324.7 | 12.87
303.15 K, x2 = 0.4939 | 1317.38 | 1299.7 | 16.31
303.15 K, x2 = 0.5905 | 1348.07 | 1275.1 | 19.68
303.15 K, x2 = 0.6834 | 1372.38 | 1256.5 | 23.79
303.15 K, x2 = 0.7988 | 1397.7 | 1239.1 | 29.03
303.15 K, x2 = 0.8751 | 1411.09 | 1229.8 | 33.45
308.15 K, x2 = 0 | 974.47 | 1528.3 | 1.55
308.15 K, x2 = 0.0958 | 1077.34 | 1447.9 | 2.93
308.15 K, x2 = 0.2004 | 1162.61 | 1388 | 5.47
308.15 K, x2 = 0.3061 | 1228.67 | 1345.4 | 7.87
308.15 K, x2 = 0.4074 | 1278.4 | 1312.1 | 10.91
308.15 K, x2 = 0.4939 | 1312.87 | 1287.6 | 13.85
308.15 K, x2 = 0.5905 | 1343.49 | 1263.3 | 16.65
308.15 K, x2 = 0.6834 | 1367.74 | 1245 | 20
308.15 K, x2 = 0.7988 | 1393.02 | 1228.1 | 24.27
308.15 K, x2 = 0.8751 | 1406.37 | 1218.9 | 27.84
313.15 K, x2 = 0 | 970.36 | 1511.5 | 1.4
313.15 K, x2 = 0.0958 | 1073.05 | 1433.7 | 2.61
313.15 K, x2 = 0.2004 | 1158.33 | 1373.8 | 4.76
313.15 K, x2 = 0.3061 | 1224.28 | 1332.5 | 6.8
313.15 K, x2 = 0.4074 | 1273.93 | 1299.9 | 9.36
313.15 K, x2 = 0.4939 | 1308.35 | 1275.7 | 11.86
313.15 K, x2 = 0.5905 | 1338.91 | 1251.8 | 14.24
313.15 K, x2 = 0.6834 | 1363.11 | 1233.8 | 17.04
313.15 K, x2 = 0.7988 | 1388.31 | 1217.1 | 20.57
313.15 K, x2 = 0.8751 | 1401.64 | 1208.1 | 23.51
318.15 K, x2 = 0 | 966.24 | 1492.8 | 1.27
318.15 K, x2 = 0.0958 | 1068.75 | 1417.6 | 2.34
318.15 K, x2 = 0.2004 | 1154.04 | 1359.9 | 4.17
318.15 K, x2 = 0.3061 | 1219.9 | 1319.4 | 5.94
318.15 K, x2 = 0.4074 | 1269.47 | 1287.4 | 8.12
318.15 K, x2 = 0.4939 | 1303.83 | 1263.6 | 10.24
318.15 K, x2 = 0.5905 | 1334.33 | 1240 | 12.3
318.15 K, x2 = 0.6834 | 1358.47 | 1222.4 | 14.69
318.15 K, x2 = 0.7988 | 1383.61 | 1206.1 | 17.64
318.15 K, x2 = 0.8751 | 1396.92 | 1197.1 | 20.12
323.15 K, x2 = 0 | 962.13 | 1476.2 | 1.16
323.15 K, x2 = 0.0958 | 1064.46 | 1403.2 | 2.11
323.15 K, x2 = 0.2004 | 1149.76 | 1346.5 | 3.68
323.15 K, x2 = 0.3061 | 1215.52 | 1306.7 | 5.23
323.15 K, x2 = 0.4074 | 1265 | 1275.5 | 7.1
323.15 K, x2 = 0.4939 | 1299.32 | 1252 | 8.9
323.15 K, x2 = 0.5905 | 1329.74 | 1228.6 | 10.72
323.15 K, x2 = 0.6834 | 1353.84 | 1211.5 | 12.79
323.15 K, x2 = 0.7988 | 1378.91 | 1195.2 | 15.29
323.15 K, x2 = 0.8751 | 1392.22 | 1186.4 | 17.41
